This is an account of results in patent US10190166B2, “Methods for identifying dendritic cell subsets, for determining if a patient is developing a regulatory or an effector immune response, and for determining response to immunotherapy” (STALLERGENES, priority 2011, dated 2019).

The subject of assay [1] is monocyte-derived DCs. The experiment in a line: Cell surface phenotype of treated DCs by flow cytometry. The assay is classed as cell-based, human. As to conditions: treatment during the differentiation step. As for the experimental part: For immuno-fluorescence staining, cells were harvested, washed in PBS and incubated for 20 min at 4° C. with the following mAbs: FITC anti-CD14, FITC anti-CD80, PE anti-CD86, PC5 anti-CD83 (Beckman coulter), FITC anti-ILT2, PE anti-ILT4, PC5 anti-ILT3 (R&D systems) or PE-CD11c (Miltenyi Biotec, Paris, France). Cells were stained with corresponding isotype-matched control mAbs and analyzed by flow cytometry.
For orientation: In flow cytometry, cells or beads pass a laser one at a time.

For assay [2], the system named is monocyte-derived DCs. The experiment in a line: Anti-inflammatory effect: treated DCs stimulated with LPS 24 h (costimulatory molecules, cytokine secretion). The assay is classed as cell-based, human.
Assay [3] has as its system monocyte-derived DCs. The experiment in a line: Western blot analysis of marker proteins in treated DCs. The assay is classed as cell-based, human. The method, then:
NuPAGE-Western blotting was carried out according to standard procedures (NuPAGE technical guide, Invitrogen). […] H00004599-[…], 1/500) from Abnova (Taipei, Taiwan), anti-CD71 (Cat. no. […] The rabbit polyclonal serum raised against GILZ was previously described (see […], et al. […] Peroxidase-conjugated goat anti-mouse and anti-rabbit secondary antibodies were both obtained from Jackson Immunoresearch Laboratories (Sufflok, England), and the chemiluminescence detection kit was from Pierce (SuperSignal West Pico Chemiluminescent Substrate, Fisher Scientific, Illkirch, France). Western blot signals were acquired with a CCD camera (Fusion FX7, Vilber-Lourmat, Marnes La Vallée, France) and band volume was quantified using the Bio-1D software (Vilber-Lourmat). β-actin or GAPDH were used as loading controls.
A general note: Immunoblotting shows a protein as a band on a membrane.

Assay [4] relates to monocyte-derived DCs. The experiment in a line: Quantitative real-time PCR of marker genes in treated DCs. (In general: In qPCR the cycle at which signal appears reflects the starting amount.)
Method: Total RNA was extracted from treated DCs or PBMCs using RNeasy mini kits (Qiagen, Courtaboeuf, France) and cDNAs were obtained using TaqMan reverse transcription reagents (Applied Biosystems, Les Ulis, France) as per the manufacturer's instructions. Messenger RNA expression was evaluated by quantitative PCR on a 7900HT real-time PCR system (Applied Biosystems) with predesigned Taqman gene expression assays and reagents, according to the manufacturer's instructions. Expression of the following genes was assessed in DCs or PBMCs: GILZ (Hs00608272_m1), IDO (Hs00158032_m1), RALDH-1 (Hs00167445_m1), RALDH-2 (Hs00180254_m1), ANXA1 (Hs00167549_m1), CLIC2 (Hs01574555_m)1, FKBP5 (Hs01561001_m1), F13A (Hs00173388_m1), GPX1 (Hs00829989_gH), IMDH2 (Hs00168418_m1), OSF1 (Hs00273458_m1), TPP1 (Hs00166099_m1), C1QA (Hs00381122_m1), C1QB (Hs00608019_m1), C1QC (Hs00757779_m1), CATB (Hs00947433_m1), CATC (Hs00175188_m1), STAB1 (Hs01109068_m1), MRC1 (Hs00267207_m1), CD71 (Hs00951083_m1), FSCN1 (Hs00979631_g1), IRF4 (Hs01056533_m1), MX1 (Hs00895608_m1), NMES1 (Hs00260902_m1), TRAF1 (Hs01090170_m1). Expression of the following genes was assessed in T cells: IFNg (Hs00989291_m1), IL-4 (Hs00174122_m1), IL-10 (Hs00961622_m1) and IL-17A (Hs00174383_m1). Data were interpreted for each target gene in comparison with endogenous β-actin (Hs99999903_m1) or GAPDH (Hs03929097_g1) as controls. The relative amount of target genes in each sample was calculated in comparison with the calibrator sample using the ΔΔCt The magnitude of gene induction was calculated using the formula 2^−ΔΔCt=2^(−ΔCt for stimulated cells−ΔCt for unstimulated cells).
For assay [5], the system named is monocyte-derived DCs. The experiment in a line: Label free MS analysis of DC subtypes. The assay is classed as cell-based, human. As for the experimental part:
Label-free MS of digested total protein lysates (solubilized in buffer A as described above), was conducted to compare proteomes of control, effector and regulatory DC subsets. Briefly, a common ultrafiltration device was used for detergent removal (CHAPS) to enable subsequent proteome analysis (Filter-aided sample preparation, FASP). 100 μg of proteins were mixed with urea-containing buffers in the filter unit (Amicon Ultra-0.5 ml, Ultracel-10 kDa Membrane, Millipore, Molsheim, France), reduced with 20 mM DTT, alkylated with 50 mM iodoacetamide, digested with Lys-C (37° C., 5 h, ratio 1/50, Sigma-Aldrich) and then with trypsin (37° C., overnight, ratio 1/50). After digestion, peptides were desalted using RPC18 Dynal magnetic beads (Invitrogen), acidified with FA and 1.5 to 2 μg of tryptic peptides were analyzed by nanoLC-MS or nanoLC-MS/MS.
In MS mode, full scan MS spectra were acquired from m/z 280 to 1500 (1 MS spectrum of 0.8 s) during 270 min. Ion intensities recorded in LC-MS data were analyzed using Progenesis LC-MS v3.1 software (Non Linear Dynamics) to provide reliable measurements of peptide (feature) abundance across samples. Internal calibration was performed by enabling the lock mass option in MS mode (minimum intensity>200 and mass±0.015 Da). […] Targeted nanoLC-MS/MS were accomplished by means of an inclusion mass list in the MS instrument method. […] Identification parameters were identical to those described for 2D-DIGE analysis. […] For accurate mass measurements, the lock mass option was enabled in MS and MS/MS mode.

The mark [6] stands for this setting: tolerogenic DC models (model B).
[7] abbreviates: moDCs treated 24 h, one value per peptide.

Where “and” joins values, the source holds several entries; their conditions need not be identical. Equal values may be shown once.

Turning to `C=C1/C(=C\C=C2/CCC[C@]3(C)[C@@H]([C@H](C)CCCC(C)(C)O)CC[C@@H]23)C[C@@H](O)C[C@@H]1O` [VitD3, 1,25 dihydroxy-vitamin D3], in assay [1], the CD14 expression entry is recorded as “CD14^med” and the ILT3 expression entry was “ILT3^high”. The “IL-6, IL-8 and TNF-α secretion after LPS stimulation” value in assay [2] is given as “left uninhibited”.
For “TGFb: cytokine TGFb added during the DC differentiation step (20 ng/ml)”, in assay [1], the CD14 expression entry is listed as “CD14^neg” and the ILT2 expression result was “ILT2^med”. Moreover, the “ANXA1, CATC and GILZ proteins” value in assay [3] (setting [6]) is listed as “upregulated”.
Turning to `C[C@@H]1C[C@H]2[C@@H]3CCC4=CC(=O)C=C[C@]4(C)[C@@]3(F)[C@@H](O)C[C@]2(C)[C@@]1(O)C(=O)CO` [DEX, dexamethasone], the “C1QA, C1QB and STAB1 gene expression increase” value in assay [4] (DEX-DCs compared with Ctrl-DCs) was no more than 12 fold. Besides, in assay [4] (DEX-DCs relative to Ctrl-DCs), the “FKBP5 and F13A gene expression increase” value is on record as no more than 15 fold. Moreover, the “abundance of the m/z 865.70 molecular ion” value in assay [5] (moDCs treated 24 h) worked out at 16300. Besides, in assay [5] (setting [7]), the “Annexin A5 (ANXA5) average normalized abundance” value was 16940 and 11135; the “Annexin A6 (ANXA6) average normalized abundance” value was 3594 and 2084; the “Chloride intracellular channel protein 2 (CLIC2) average normalized abundance” value is 3857 and 4306; the “Complement C1q subcomponent subunit C (C1QC) average normalized abundance” value is 4308 and 4812 and 2406 and 2725. Moreover, in assay [5] (setting [7]), the “Cystatin-C (CYTC) average normalized abundance” value was 7747 and 6610 and 5925; the “Dipeptidyl peptidase 1 (CATC) average normalized abundance” value was 9396 and 14732 and 15459; the “Gelsolin precursor (GELS) average normalized abundance” value was 5372 and 6735; the “Integrin alpha-M (ITAM) average normalized abundance” value was 3832. Moreover, in assay [5] (setting [7]), the “Interferon-induced GTP-binding protein Mx1 (MX1) average normalized abundance” value is reported as 1192; the “Neuroblast differentiation-associated protein AHNAK (AHNK) average normalized abundance” value was 2629 and 3047; the “Normal mucosa of esophagus-specific gene 1 protein (NMES1) average normalized abundance” value is 2947 and 2380; the “Peptidyl-prolyl cis-trans isomerase A (PPIA) average normalized abundance” value was 18929 and 14751. Moreover, in assay [5] (setting [7]), the “Peptidyl-prolyl cis-trans isomerase FKBP5 average normalized abundance” value is 3640 and 5224 and 4046; the “Pleckstrin (PLEK) average normalized abundance” value was 5583 and 4404; the “Proteasome subunit alpha type-7 (PSA7) average normalized abundance” value was 3617 and 2212; the “Sequestosome-1 (SQSTM) average normalized abundance” value is 1340 and 2411. For the same molecule, in assay [5] (setting [7]), the “TNF receptor-associated factor 1 (TRAF1) average normalized abundance” value was 1732 and 2223; the “Transferrin receptor protein 1 (TFR1) average normalized abundance” value was 706 and 1195; the “WD repeat-containing protein 1 (WDR1) average normalized abundance” value is 2581 and 2605. In addition, in assay [5] (tolerogenic DEX-DCs), the “C1QC specific peptides increase” value was no more than 5 fold. In assay [3] (DEX-DCs compared with Ctrl-DCs), this molecule had an ANXA1 protein level of 1.4 fold and an FKBP5 protein induction of 2.6 fold. In addition, in assay [3] (regulatory DEX-DCs), the C1Q protein level amounted to 12 fold, the CATC protein level was 1.5 fold, the MRC1 protein level is on record as 1.4 fold and the STAB1 protein level was 2.2 fold.

B1: IL-10: cytokine IL-10 added during the DC differentiation step (10 ng/ml) (protein, UniProt P22301 19-178, looked up)
Interleukin-10: SPGQGTQSENSCTHFPGNLPNMLRDLRDAFSRVKTFFQMKDQLDNLLLKESLLEDFKGYLGCQALSEMIQFYLEEVMPQAENQDPDIKAHVNSLGENLKTLRLRLRRCHRFLPCENKSKAVEQVKNAFNKLQEKGIYKAMSEFDIFINYIEAYMTMKIRN
For the molecule B1, in assay [4] (setting [6]), the CATC gene induction result is “detected”. Further, in assay [1], the CD14 expression result is “CD14^high” and the ILT4 expression result was “ILT4high”. Further, in assay [3] (tolerogenic DC models (model B), DEX 24 h or differentiation), the “F13A, MRC1 and STAB1 proteins” value is “upregulated”.
